In publication PMC12678836, “Screening for dual-target enzyme inhibitors derived from Gardenia jasminoides roots, a medicinal and edible plant: investigation of their potential anti-dementia activity” (Frontiers in Nutrition, 2025):
Read-outs that look alike come from different tables or passages of the source.

Assays:
5-LOX [1] = target: T1, 5-LOX (Glycine max, UniProt P08170); test: Affinity ultrafiltration-HPLC binding degree to 5-LOX; conditions: GJR extract, 37 °C 30 min
T1 sequence (P08170 1-839): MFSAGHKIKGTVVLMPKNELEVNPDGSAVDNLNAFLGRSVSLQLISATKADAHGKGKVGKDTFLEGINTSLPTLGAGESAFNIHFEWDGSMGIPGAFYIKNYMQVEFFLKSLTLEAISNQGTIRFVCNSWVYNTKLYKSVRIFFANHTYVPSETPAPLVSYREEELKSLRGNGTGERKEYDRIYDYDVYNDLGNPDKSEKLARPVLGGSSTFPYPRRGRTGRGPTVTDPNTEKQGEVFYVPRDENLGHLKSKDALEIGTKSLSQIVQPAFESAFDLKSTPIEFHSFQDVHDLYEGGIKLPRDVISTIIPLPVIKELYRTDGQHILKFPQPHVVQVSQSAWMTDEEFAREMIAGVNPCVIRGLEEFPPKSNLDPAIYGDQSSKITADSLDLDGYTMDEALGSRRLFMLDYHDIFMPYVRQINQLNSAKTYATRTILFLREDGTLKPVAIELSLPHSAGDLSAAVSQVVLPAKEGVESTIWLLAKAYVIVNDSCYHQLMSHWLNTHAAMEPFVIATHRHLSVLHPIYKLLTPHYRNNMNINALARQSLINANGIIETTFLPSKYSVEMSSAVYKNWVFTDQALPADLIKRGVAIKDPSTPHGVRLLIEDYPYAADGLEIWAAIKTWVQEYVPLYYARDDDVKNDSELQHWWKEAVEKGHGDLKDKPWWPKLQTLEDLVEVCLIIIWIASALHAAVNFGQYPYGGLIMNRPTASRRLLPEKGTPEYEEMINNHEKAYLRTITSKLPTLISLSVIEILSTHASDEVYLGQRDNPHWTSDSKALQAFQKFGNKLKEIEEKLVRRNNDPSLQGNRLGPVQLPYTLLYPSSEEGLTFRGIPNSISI
Procedure: (§1) A total of 300 g of GJR was accurately weighed, dried, and ground into a fine powder using a mechanical grinder. The powdered material was extracted with 60% ethanol (v/v) at a solvent-to-solid ratio of 20:1 (v/v). Each extraction cycle involved ultrasonication for 1 h and was performed twice to ensure exhaustive extraction. The combined extracts were concentrated to dryness by rotary evaporation under reduced pressure, yielding 6.75 g of crude extract. A 50 mg portion of the crude extract was accurately weighed, dissolved in 50% methanol–water (v/v), and diluted to a final concentration of 50 mg/ml to obtain a stock solution for subsequent experiments. All procedures were conducted under controlled laboratory conditions to ensure consistency and reproducibility.
(§2) The screening assay consisted of two groups: a blank control and an experimental group, both prepared in phosphate-buffered saline (PBS). In the experimental group, 10.0 μl of the sample solution was mixed with 90.0 μl of either 5-lipoxygenase (5-LOX) and acetylcholinesterase (AChE) at final concentrations of 0.5, 1.0, or 2.0 U/ml, along with 100 μl of PBS (pH 7.4), resulting in a total volume of 200 μl. The mixture was incubated at 37 °C for 30 min and subsequently filtered through a 100 kDa ultrafiltration membrane by centrifugation at high speed for 10 min. The supernatant was discarded, and the membrane was washed three times with PBS to remove free or non-specifically bound compounds. Then, 150 μl of 50% methanol–water was added to denature the proteins and release the bound small molecules. For the blank control, the enzyme solution was replaced with an equal volume of PBS, while all other experimental conditions remained the same. The resulting eluate was analyzed by HPLC. The binding degree (BD) was used to quantify the interaction between compounds and the target enzymes. It was calculated based on the increase in chromatographic peak area of enzyme-bound compounds, using the following formula: […]

AChE [2] = target: T2, AChE (Musca domestica, UniProt A0ABM3VDL1); test: Affinity ultrafiltration-HPLC binding degree to AChE; set-up: species or system fly; conditions: GJR extract, 37 °C 30 min
T2 sequence (A0ABM3VDL1 81-660): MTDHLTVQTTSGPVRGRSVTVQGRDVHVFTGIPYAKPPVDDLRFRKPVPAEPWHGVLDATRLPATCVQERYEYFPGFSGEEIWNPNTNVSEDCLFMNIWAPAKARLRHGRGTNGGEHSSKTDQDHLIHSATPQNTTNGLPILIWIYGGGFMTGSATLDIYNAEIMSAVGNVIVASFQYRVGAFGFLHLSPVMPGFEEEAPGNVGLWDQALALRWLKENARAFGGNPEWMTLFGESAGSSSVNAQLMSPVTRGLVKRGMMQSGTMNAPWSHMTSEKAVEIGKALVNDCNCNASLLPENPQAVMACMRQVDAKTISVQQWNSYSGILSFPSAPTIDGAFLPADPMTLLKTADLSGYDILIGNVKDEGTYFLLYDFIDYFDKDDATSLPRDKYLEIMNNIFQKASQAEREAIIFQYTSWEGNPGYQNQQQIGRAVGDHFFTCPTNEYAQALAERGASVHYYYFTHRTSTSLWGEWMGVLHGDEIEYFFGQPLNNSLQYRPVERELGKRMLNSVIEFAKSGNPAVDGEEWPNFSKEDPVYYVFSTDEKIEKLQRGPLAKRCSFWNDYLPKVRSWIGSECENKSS
Procedure: as §1, §2

5-LOX [3] = target: T1, 5-LOX; test: 5-LOX enzyme inhibition and inhibition kinetics (linoleic acid substrate, HPLC); assay type: biochemical; conditions: Lineweaver-Burk / rate vs enzyme concentration
Description: Galantamine served as the positive control.

AChE [4] = target: T2, AChE
Procedure: Acetylcholinesterase (AChE, EC 3.2.1.20) was extracted from fly heads.
All reagents were prepared with 0.05 mol/L phosphate buffer solution at pH 6.8. […] Before use, it was diluted to 0, 5, 10, 15, and 20 × 10^−5 mol/L. 5-LOX and linoleic acid were, respectively prepared at concentrations of 2.08 × 10^−7 and 5.0 × 10^−4 mol/L. AChE and iodinated thioacetylcholine were prepared using the same method.
The mixture was incubated for 10 min at 37 °C in a thermostatic water bath to form the enzyme reaction solution, followed by the addition of linoleic acid (5.0 × 10^−4 mol/L) as the substrate. […] For the AChE assay, 0.1 ml of DTNB solution was included in the reaction mixture and incubated under the same conditions as those used in the 5-LOX experiment, while all other procedural steps remained identical. The control group was not supplemented with samples, while the blank group received an equal volume of buffer solution in place of the enzyme solution. […] Enzyme activity in the absence of any inhibitor was regarded as 100%.
By analyzing the correlation between reaction rate and enzyme concentration, a kinetic curve was generated.
Data analysis was carried out using Origin 8.0 software through one-way ANOVA, with each sample group subjected to three independent replicate experiments (p < 0.05).

SMILES	BD (binding degree) with 5-LOX (5-LOX [1]; 5-LOX 0.5 U/ml) [%]	BD (binding degree) with 5-LOX (5-LOX [1]; 5-LOX 1.0 U/ml) [%]	BD (binding degree) with 5-LOX (5-LOX [1]; 5-LOX 2.0 U/ml) [%]	BD (binding degree) with AChE (AChE [2]; AChE 0.5 U/ml) [%]	BD (binding degree) with AChE (AChE [2]; AChE 1.0 U/ml) [%]	BD (binding degree) with AChE (AChE [2]; AChE 2.0 U/ml) [%]	Inhibition type for 5-LOX (5-LOX [3])	Inhibition type for 5-LOX (5-LOX [3]; listed as mussaenoside acid)	Kis, AChE (AChE [4]; Lineweaver-Burk)	Inhibition type for AChE (AChE [4]; concentration exceeds 10 × 10^−5 mol/L)	Inhibition type for AChE (AChE [4]; concentrations below 5 × 10^−5 mol/L)	Inhibition type for AChE (AChE [4]; overall statement in conclusion)
COc1cc(C2OCC3C(c4cc(OC)c(OC5OC(CO)C(O)C(O)C5O)c(OC)c4)OCC23)cc(OC)c1OC1OC(CO)C(O)C(O)C1O (stereo not drawn) [Eleutheroside E]	38.17	55.16	59.44	12.19	21.06	69.87						
C[C@]1(O)CC[C@@H]2C(C(=O)O)=CO[C@@H](O[C@@H]3O[C@H](CO)[C@@H](O)[C@H](O)[C@H]3O)[C@@H]21 [Mussaenoside acid]							competitive inhibition	reversible inhibition	102.08	mixed-type inhibition	competitive inhibition	mixed-type inhibition
